Reference: patent US20230093099A1, “COMPOUNDS AND METHODS OF TREATING CANCERS” (CULLGEN (SHANGHAI), INC., priority 2019, published 2023)

The molecules below were run on RS4;11 cells (assay: Cell viability assay (CellTiter-Glo) in RS4;11 cells). Settings: Homo sapiens, 72 h; RS4;11 ALL cells treated for three days; read-out: cell viability inhibition IC50.
Format: cell-based
How it was run: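 Three-day compound treatment of RS4;11 ALL cells (5000/well, 3-fold dilution series of 8 or 12 points), with IC50 from a nonlinear least-squares fit to CellTiter-Glo viability data.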

Row | IC50 | Compound
1 | < 100 nM | Cc1cnc(Nc2ccc(N3CCN(C(=O)CCCCCCCNc4ccc5c(c4)C(=O)N(C4CCC(=O)NC4=O)C5=O)CC3)cc2)nc1Nc1cccc(S(=O)(=O)NC(C)(C)C)c1 (stereo not drawn) [JA-231, N-(tert-butyl)-3-((2-((4-(4-(8-((2-(2,6-dioxopiperidin-3-yl)-1,3-dioxoisoindolin-5-yl)amino)octanoyl)piperazin-1-yl)phenyl)amino)-5-methylpyrimidin-4-yl)amino)benzenesulfonamide]

Same assay, conditions: Homo sapiens, 72 h; RS4;11 cells; cell viability, 3 days, CellTiter-Glo; read-out: IC50

Row | IC50 | Compound
2 | 365 nM | Cc1cnc(Nc2ccc(N3CCN(C(=O)CCNc4ccc5c(c4)C(=O)N(C4CCC(=O)NC4=O)C5=O)CC3)cc2)nc1Nc1cccc(S(=O)(=O)NC(C)(C)C)c1 (stereo not drawn) [JA-226, N-(tert-butyl)-3-((2-((4-(4-(3-((2-(2,6-dioxopiperidin-3-yl)-1,3-dioxoisoindolin-5-yl)amino)propanoyl)piperazin-1-yl)phenyl)amino)-5-methylpyrimidin-4-yl)amino)benzenesulfonamide]
3 | > 10000 nM | Cc1ncsc1-c1ccc(CNC(=O)[C@@H]2C[C@@H](O)CN2C(=O)[C@@H](NC(=O)CCCCNC(=O)CN2CCN(c3ccc(Nc4nc5cccc(-c6ccc(S(C)(=O)=O)cc6)n5n4)cc3)CC2)C(C)(C)C)cc1 [JA-130, (2S,4R)-1-((S)-3,3-Dimethyl-2-(5-(2-(4-(4-((5-(4-(methylsulfonyl)phenyl)-[1,2,4]triazolo[1,5-a]pyridin-2-yl)amino)phenyl)piperazin-1-yl)acetamido)pentanamido)butanoyl)-4-hydroxy-N-(4-(4-methylthiazol-5-yl)benzyl)pyrrolidine-2-carboxamide]
4 | 337 nM | CS(=O)(=O)c1ccc(-c2cccc3nc(Nc4ccc(N5CCN(C(=O)CCCCCCc6ccc7c(c6)CN(C6CCC(=O)NC6=O)C7=O)CC5)cc4)nn23)cc1 (stereo not drawn) [JA-251, 3-(5-(7-(4-(4-((5-(4-(Methylsulfonyl)phenyl)-[1,2,4]triazolo[1,5-a]pyridin-2-yl)amino)phenyl)piperazin-1-yl)-7-oxoheptyl)-1-oxoisoindolin-2-yl)piperidine-2,6-dione]
5 | > 10000 nM | Cc1ncsc1-c1ccc(CNC(=O)[C@@H]2C[C@@H](O)CN2C(=O)[C@@H](NC(=O)COCCNC(=O)CN2CCN(c3ccc(Nc4nc5cccc(-c6ccc(S(C)(=O)=O)cc6)n5n4)cc3)CC2)C(C)(C)C)cc1 [JA-132, (2S,4R)-1-((S)-3,3-Dimethyl-2-(2-(2-(2-(4-(4-((5-(4-(methylsulfonyl)phenyl)-[1,2,4]triazolo[1,5-a]pyridin-2-yl)amino)phenyl)piperazin-1-yl)acetamido)ethoxy)acetamido)butanoyl)-4-hydroxy-N-(4-(4-methylthiazol-5-yl)benzyl)pyrrolidine-2-carboxamide]
6 | 638 nM | Cc1cnc(Nc2ccc(N3CCN(CC(=O)NCCOCCOCCOCCOCCNc4ccc5c(c4)C(=O)N(C4CCC(=O)NC4=O)C5=O)CC3)cc2)nc1Nc1cccc(S(=O)(=O)NC(C)(C)C)c1 (stereo not drawn) [JA-240, 2-(4-(4-((4-((3-(N-(tert-butyl)sulfamoyl)phenyl)amino)-5-methylpyrimidin-2-yl)amino)phenyl)piperazin-1-yl)-N-(14-((2-(2,6-dioxopiperidin-3-yl)-1,3-dioxoisoindolin-5-yl)amino)-3,6,9,12-tetraoxatetradecyl)acetamide]
7 | 66 nM | O=C1CCC(N2Cc3cc(NCCCCCC(=O)N4CCC(n5cc(-c6cnc7cccc(-c8cc(F)c(CN9CCOCC9)c(F)c8)c7n6)cn5)CC4)ccc3C2=O)C(=O)N1 (stereo not drawn) [JA-273, 3-(5-((6-(4-(4-(8-(3,5-difluoro-4-(morpholinomethyl)phenyl)quinoxalin-2-yl)-1H-pyrazol-1-yl)piperidin-1-yl)-6-oxohexyl)amino)-1-oxoisoindolin-2-yl)piperidine-2,6-dione]
8 | 1150 nM | CS(=O)(=O)c1ccc(-c2cccc3nc(Nc4ccc(N5CCN(CCCCCCNc6ccc7c(c6)C(=O)N(C6CCC(=O)NC6=O)C7=O)CC5)cc4)nn23)cc1 (stereo not drawn) [JA-254, 2-(2,6-Dioxopiperidin-3-yl)-5-((6-(4-(4-((5-(4-(methylsulfonyl)phenyl)-[1,2,4]triazolo[1,5-a]pyridin-2-yl)amino)phenyl)piperazin-1-yl)hexyl)amino)isoindoline-1,3-dione]
9 | 9500 nM | O=C1CCC(N2C(=O)c3ccc(NCC(=O)N4CCC(n5cc(-c6cnc7cccc(-c8cc(F)c(CN9CCOCC9)c(F)c8)c7n6)cn5)CC4)cc3C2=O)C(=O)N1 (stereo not drawn) [JA-191]
10 | 2270 nM | Cc1cnc(Nc2ccc(N3CCN(C(=O)CCCCNc4cccc5c4C(=O)N(C4CCC(=O)NC4=O)C5=O)CC3)cc2)nc1Nc1cccc(S(=O)(=O)NC(C)(C)C)c1 (stereo not drawn) [JA-107, N-(tert-Butyl)-3-((2-((4-(4-(5-((2-(2,6-dioxopiperidin-3-yl)-1,3-dioxoisoindolin-4-yl)amino)pentanoyl)piperazin-1-yl)phenyl)amino)-5-methylpyrimidin-4-yl)amino)benzenesulfonamide]
11 | 241 nM | CS(=O)(=O)c1ccc(-c2cccc3nc(Nc4ccc(N5CCN(C(=O)CCOCCOCCNc6ccc7c(c6)C(=O)N(C6CCC(=O)NC6=O)C7=O)CC5)cc4)nn23)cc1 (stereo not drawn) [JA-201]
12 | 6430 nM | Cc1ncsc1-c1ccc(CNC(=O)[C@@H]2C[C@@H](O)CN2C(=O)[C@@H](NC(=O)CCOCCC(=O)N2CCN(c3ccc(Nc4nc5cccc(-c6ccc(S(C)(=O)=O)cc6)n5n4)cc3)CC2)C(C)(C)C)cc1 [JA-082, 4-Hydroxy-1-(2-{3-[3-(4-{4-[5-(4-methanesulfonyl-phenyl)-[1,2,4]triazolo[1,5-a]pyridin-2-ylamino]-phenyl}-piperazin-1-yl)-3-oxo-propoxy]-propionylamino}-3,3-dimethyl-butyryl)-pyrrolidine-2-carboxylic acid 4-(4-methyl-thiazol-5-yl)-benzylamide]
13 | 2790 nM | O=C(CN1CCC(n2cc(-c3cnc4cccc(-c5cc(F)c(CN6CCOCC6)c(F)c5)c4n3)cn2)CC1)NCCCCNc1ccc2c(c1)C(=O)N(C1CCC(=O)NC1=O)C2=O (stereo not drawn) [JA-176, 2-(4-(4-(8-(3,5-Difluoro-4-(morpholinomethyl)phenyl)quinoxalin-2-yl)-1H-pyrazol-1-yl)piperidin-1-yl)-N-(4-((2-(2,6-dioxopiperidin-3-yl)-1,3-dioxoisoindolin-5-yl)amino)butyl)acetamide]
14 | > 500 nM | CS(=O)(=O)c1ccc(-c2cccc3nc(Nc4ccc(N5CCN(C(=O)CCCCCCn6c(=O)n(C7CCC(=O)NC7=O)c7ccccc76)CC5)cc4)nn23)cc1 (stereo not drawn) [JA-281, 3-(3-(7-(4-(4-((5-(4-(Methylsulfonyl)phenyl)-[1,2,4]triazolo[1,5-a]pyridin-2-yl)amino)phenyl)piperazin-1-yl)-7-oxoheptyl)-2-oxo-2,3-dihydro-1H-benzo[d]imidazol-1-yl)piperidine-2,6-dione]
15 | 1240 nM | CS(=O)(=O)c1ccc(-c2cccc3nc(Nc4ccc(N5CCN(CC(=O)NCCNc6ccc7c(c6)C(=O)N(C6CCC(=O)NC6=O)C7=O)CC5)cc4)nn23)cc1 (stereo not drawn) [JA-207, N-(2-((2-(2,6-Dioxopiperidin-3-yl)-1,3-dioxoisoindolin-5-yl)amino)ethyl)-2-(4-(4-((5-(4-(methylsulfonyl)phenyl)-[1,2,4]triazolo[1,5-a]pyridin-2-yl)amino)phenyl)piperazin-1-yl)acetamide]
16 | 80.2 nM | Cc1cnc(Nc2ccc(N3CCN(C(=O)CCCCCCCNc4ccc5c(c4)C(=O)N(C4CCC(=O)NC4=O)C5=O)CC3)cc2)nc1Nc1cccc(S(=O)(=O)NC(C)(C)C)c1 (stereo not drawn) [JA-231, N-(tert-butyl)-3-((2-((4-(4-(8-((2-(2,6-dioxopiperidin-3-yl)-1,3-dioxoisoindolin-5-yl)amino)octanoyl)piperazin-1-yl)phenyl)amino)-5-methylpyrimidin-4-yl)amino)benzenesulfonamide]
17 | > 10000 nM | O=C(CN1CCC(n2cc(-c3cnc4cccc(-c5cc(F)c(CN6CCOCC6)c(F)c5)c4n3)cn2)CC1)NCCCCCCCNc1cccc2c1C(=O)N(C1CCC(=O)NC1=O)C2=O (stereo not drawn) [JA-148, 2-(4-(4-(8-(3,5-Difluoro-4-(morpholinomethyl)phenyl)quinoxalin-2-yl)-1H-pyrazol-1-yl)piperidin-1-yl)-N-(7-((2-(2,6-dioxopiperidin-3-yl)-1,3-dioxoisoindolin-4-yl)amino)heptyl)acetamide]
18 | > 10000 nM | CS(=O)(=O)c1ccc(-c2cccc3nc(Nc4ccc(N5CCN(C(=O)CCCCCNc6ccc7c(c6)C(=O)N(C6CCC(=O)NC6=O)C7)CC5)cc4)nn23)cc1 (stereo not drawn) [JA-276, 3-(6-((6-(4-(4-((5-(4-(Methylsulfonyl)phenyl)-[1,2,4]triazolo[1,5-a]pyridin-2-yl)amino)phenyl)piperazin-1-yl)-6-oxohexyl)amino)-1-oxoisoindolin-2-yl)piperidine-2,6-dione]
19 | > 10000 nM | Cc1ncsc1-c1ccc(CNC(=O)[C@@H]2C[C@@H](O)CN2C(=O)[C@@H](NC(=O)CCOCCNC(=O)CN2CCC(n3cc(-c4cnc5cccc(-c6cc(F)c(CN7CCOCC7)c(F)c6)c5n4)cn3)CC2)C(C)(C)C)cc1 [JA-160, (2S,4R)-1-((S)-2-(3-(2-(2-(4-(4-(8-(3,5-Difluoro-4-(morpholinomethyl)phenyl)quinoxalin-2-yl)-1H-pyrazol-1-yl)piperidin-1-yl)acetamido)ethoxy)propanamido)-3,3-dimethylbutanoyl)-4-hydroxy-N-(4-(4-methylthiazol-5-yl)benzyl)pyrrolidine-2-carboxamide]
20 | 181 nM | CS(=O)(=O)c1ccc(-c2cccc3nc(Nc4ccc(N5CCN(C(=O)CCCCC#Cc6ccc7c(c6)CN(C6CCC(=O)NC6=O)C7=O)CC5)cc4)nn23)cc1 (stereo not drawn) [JA-250, 3-(5-(7-(4-(4-((5-(4-(Methylsulfonyl)phenyl)-[1,2,4]triazolo[1,5-a]pyridin-2-yl)amino)phenyl)piperazin-1-yl)-7-oxohept-1-yn-1-yl)-1-oxoisoindolin-2-yl)piperidine-2,6-dione]

Row | Compound | IC50
21 | Cc1cnc(Nc2ccc(N3CCN(CC(=O)NCC(=O)N[C@H](C(=O)N4C[C@H](O)C[C@H]4C(=O)NCc4ccc(-c5scnc5C)cc4)C(C)(C)C)CC3)cc2)nc1Nc1cccc(S(=O)(=O)NC(C)(C)C)c1 [JA-097, (2S,4R)-1-((S)-2-(2-(2-(4-(4-((4-((3-(N-(tert-Butyl)sulfamoyl)phenyl)amino)-5-methylpyrimidin-2-yl)amino)phenyl)piperazin-1-yl)acetamido)acetamido)-3,3-dimethylbutanoyl)-4-hydroxy-N-(4-(4-methylthiazol-5-yl)benzyl)pyrrolidine-2-carboxamide] | > 10000 nM
